Measurements as given in ChEMBL document CHEMBL3414527, “Engineering potent and selective analogues of GpTx-1, a tarantula venom peptide antagonist of the Na(V)1.7 sodium channel” (J Med Chem, 2015).
Bridge positions count the residues as written; N and C are the ends. Peptide text beside a SMILES is read from it.

Molecular target: Sodium channel protein type 5 subunit alpha (Homo sapiens, UniProt Q14524)
Experiment: Inhibition of human NaV1.5 at -140 mV holding potential by whole-cell patch clamp assay

Sodium channel protein type 5 subunit alpha, sequence (Q14524 whole entry): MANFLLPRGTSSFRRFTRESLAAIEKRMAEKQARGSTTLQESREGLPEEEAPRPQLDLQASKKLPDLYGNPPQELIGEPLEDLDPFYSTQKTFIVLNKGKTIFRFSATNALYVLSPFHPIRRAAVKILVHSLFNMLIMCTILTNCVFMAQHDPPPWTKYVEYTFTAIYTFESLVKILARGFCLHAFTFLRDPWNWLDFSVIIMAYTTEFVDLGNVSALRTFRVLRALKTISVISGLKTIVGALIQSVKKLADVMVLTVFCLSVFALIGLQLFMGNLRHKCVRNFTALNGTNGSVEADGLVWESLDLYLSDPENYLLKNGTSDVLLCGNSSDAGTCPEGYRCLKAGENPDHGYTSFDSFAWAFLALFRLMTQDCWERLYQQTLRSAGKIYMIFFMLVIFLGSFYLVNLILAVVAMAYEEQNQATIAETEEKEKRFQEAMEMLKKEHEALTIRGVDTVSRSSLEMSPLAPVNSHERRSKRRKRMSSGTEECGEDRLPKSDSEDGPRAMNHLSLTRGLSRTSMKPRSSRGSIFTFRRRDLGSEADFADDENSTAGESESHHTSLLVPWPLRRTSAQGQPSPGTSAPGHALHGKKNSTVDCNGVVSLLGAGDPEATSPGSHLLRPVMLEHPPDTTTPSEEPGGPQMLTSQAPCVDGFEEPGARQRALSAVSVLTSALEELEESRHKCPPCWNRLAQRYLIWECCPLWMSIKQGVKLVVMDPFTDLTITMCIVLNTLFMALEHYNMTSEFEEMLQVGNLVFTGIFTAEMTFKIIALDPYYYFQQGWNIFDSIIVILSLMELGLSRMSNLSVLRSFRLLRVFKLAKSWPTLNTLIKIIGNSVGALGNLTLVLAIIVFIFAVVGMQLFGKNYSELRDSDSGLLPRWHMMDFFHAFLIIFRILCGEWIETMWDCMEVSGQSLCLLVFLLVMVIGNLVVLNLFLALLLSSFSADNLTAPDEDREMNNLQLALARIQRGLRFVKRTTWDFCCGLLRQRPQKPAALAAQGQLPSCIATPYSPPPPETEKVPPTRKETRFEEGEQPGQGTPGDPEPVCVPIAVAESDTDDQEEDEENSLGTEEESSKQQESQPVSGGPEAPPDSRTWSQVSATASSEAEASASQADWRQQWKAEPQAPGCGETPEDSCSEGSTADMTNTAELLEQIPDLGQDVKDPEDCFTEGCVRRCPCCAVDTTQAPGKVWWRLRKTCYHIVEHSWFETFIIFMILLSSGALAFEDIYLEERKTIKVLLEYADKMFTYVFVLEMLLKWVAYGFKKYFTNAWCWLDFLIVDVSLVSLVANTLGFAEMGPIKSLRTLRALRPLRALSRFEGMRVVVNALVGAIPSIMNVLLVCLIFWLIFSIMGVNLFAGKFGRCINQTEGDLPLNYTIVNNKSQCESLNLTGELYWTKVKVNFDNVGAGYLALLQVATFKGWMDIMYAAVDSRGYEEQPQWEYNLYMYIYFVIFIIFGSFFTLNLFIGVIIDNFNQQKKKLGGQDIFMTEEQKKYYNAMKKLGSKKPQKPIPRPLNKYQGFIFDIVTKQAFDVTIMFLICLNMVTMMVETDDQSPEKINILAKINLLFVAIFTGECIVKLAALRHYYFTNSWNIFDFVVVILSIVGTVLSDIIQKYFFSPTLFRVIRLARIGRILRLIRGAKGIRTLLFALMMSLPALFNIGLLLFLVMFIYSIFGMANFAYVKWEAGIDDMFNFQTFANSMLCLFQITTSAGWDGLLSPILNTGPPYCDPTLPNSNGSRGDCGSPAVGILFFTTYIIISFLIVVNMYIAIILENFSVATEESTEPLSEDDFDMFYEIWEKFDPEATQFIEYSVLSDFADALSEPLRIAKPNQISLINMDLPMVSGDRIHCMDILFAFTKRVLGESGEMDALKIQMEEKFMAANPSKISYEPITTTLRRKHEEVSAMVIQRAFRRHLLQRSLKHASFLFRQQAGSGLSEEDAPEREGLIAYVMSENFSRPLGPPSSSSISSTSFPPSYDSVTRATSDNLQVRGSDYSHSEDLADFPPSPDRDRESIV

Point of comparison: `CCCC[C@@H]1NC(=O)[C@H](Cc2ccccc2)NC(=O)CNC(=O)[C@H](CC(C)C)NC(=O)[C@@H](NC(=O)[C@@H](N)CC(=O)O)CSSC[C@@H]2NC(=O)[C@@H]3CSSC[C@@H](C(=O)N[C@@H](CCCCN)C(=O)N[C@@H](Cc4ccc(O)cc4)C(=O)N[C@H](C(=O)N[C@@H](Cc4ccccc4)C(N)=O)C(C)C)NC(=O)[C@H](Cc4c[nH]c5ccccc45)NC(=O)[C@H](CCCCN)NC(=O)[C@H](Cc4cnc[nH]4)NC(=O)[C@H]([C@@H](C)O)NC(=O)[C@H](CCCNC(=N)N)NC(=O)[C@H](CO)NC(=O)[C@H](CSSC[C@H](NC(=O)[C@H](CCCCN)NC(=O)[C@H](CCCNC(=N)N)NC1=O)C(=O)N[C@@H]([C@@H](C)CC)C(=O)N1CCC[C@H]1C(=O)N[C@@H](CC(=O)O)C(=O)N[C@@H](CC(N)=O)C(=O)N[C@@H](CC(=O)O)C(=O)N[C@@H](CCCCN)C(=O)N3)NC(=O)[C@H](C(C)C)NC(=O)[C@H](CC(C)C)NC(=O)[C@H](CC(N)=O)NC(=O)[C@@H]1CCCN1C(=O)[C@H](CCCNC(=N)N)NC2=O`, IC50 1.1 µM. Against it:
- CC[C@H](C)[C@@H]1NC(=O)[C@@H]2CSSC[C@@H]3NC(=O)[C@H](C(C)C)NC(=O)[C@H](CC(C)C)NC(=O)[C@H](CC(N)=O)NC(=O)[C@@H]4CCCN4C(=O)[C@H](CCCNC(=N)N)NC(=O)[C@H](CSSC[C@H](NC(=O)[C@@H](N)CC(=O)O)C(=O)N[C@@H](CC(C)C)C(=O)NCC(=O)N[C@@H](Cc4ccccc4)C(=O)N[C@@H](CCSC)C(=O)N[C@@H](CCCNC(=N)N)C(=O)N[C@@H](CCCCN)C(=O)N2)NC(=O)[C@H](CSSC[C@@H](C(=O)N[C@@H](CCCCN)C(=O)N[C@@H](Cc2ccc(O)cc2)C(=O)N[C@H](C(=O)N[C@@H](Cc2ccccc2)C(N)=O)C(C)C)NC(=O)[C@H](Cc2c[nH]c4ccccc24)NC(=O)[C@H](CCCCN)NC(=O)[C@H](Cc2cnc[nH]2)NC(=O)[C@H](CCCNC(=N)N)NC(=O)[C@H](CCCNC(=N)N)NC(=O)[C@H](CO)NC3=O)NC(=O)[C@H](CCCCN)NC(=O)[C@H](CC(=O)O)NC(=O)[C@H](CC(N)=O)NC(=O)[C@H](CC(=O)O)NC(=O)[C@@H]2CCCN2C1=O (H-DCLGFMRKCIPDNDKCCRPNLVCSRRHKWCKYVF-NH2; disulfide 2-17, 9-23, 16-30) — 2.2-fold lower, 0.5 µM
- CC[C@H](C)[C@@H]1NC(=O)[C@@H]2CSSC[C@@H]3NC(=O)[C@H](C(C)C)NC(=O)[C@H](CC(C)C)NC(=O)[C@H](C)NC(=O)[C@@H]4CCCN4C(=O)[C@H](CCCNC(=N)N)NC(=O)[C@H](CSSC[C@H](NC(=O)[C@@H](N)CC(=O)O)C(=O)N[C@@H](CC(C)C)C(=O)NCC(=O)N[C@@H](Cc4ccccc4)C(=O)N[C@@H](CCSC)C(=O)N[C@@H](CCCNC(=N)N)C(=O)N[C@@H](CCCCN)C(=O)N2)NC(=O)[C@H](CSSC[C@@H](C(=O)N[C@@H](CCCCN)C(=O)N[C@@H](Cc2ccc(O)cc2)C(=O)N[C@H](C(=O)N[C@@H](Cc2ccccc2)C(N)=O)C(C)C)NC(=O)[C@H](Cc2c[nH]c4ccccc24)NC(=O)[C@H](CCCCN)NC(=O)[C@H](Cc2cnc[nH]2)NC(=O)[C@H]([C@@H](C)O)NC(=O)[C@H](CCCNC(=N)N)NC(=O)[C@H](CO)NC3=O)NC(=O)[C@H](CCCCN)NC(=O)[C@H](CC(=O)O)NC(=O)[C@H](CC(N)=O)NC(=O)[C@H](CC(=O)O)NC(=O)[C@@H]2CCCN2C1=O (H-DCLGFMRKCIPDNDKCCRPALVCSRTHKWCKYVF-NH2; disulfide 2-17, 9-23, 16-30) — higher, > 5 µM
- CC[C@H](C)[C@@H]1NC(=O)[C@@H]2CSSC[C@@H]3NC(=O)[C@H](C)NC(=O)[C@H](CC(C)C)NC(=O)[C@H](CC(N)=O)NC(=O)[C@@H]4CCCN4C(=O)[C@H](CCCNC(=N)N)NC(=O)[C@H](CSSC[C@H](NC(=O)[C@@H](N)CC(=O)O)C(=O)N[C@@H](CC(C)C)C(=O)NCC(=O)N[C@@H](Cc4ccccc4)C(=O)N[C@@H](CCSC)C(=O)N[C@@H](CCCNC(=N)N)C(=O)N[C@@H](CCCCN)C(=O)N2)NC(=O)[C@H](CSSC[C@@H](C(=O)N[C@@H](CCCCN)C(=O)N[C@@H](Cc2ccc(O)cc2)C(=O)N[C@H](C(=O)N[C@@H](Cc2ccccc2)C(N)=O)C(C)C)NC(=O)[C@H](Cc2c[nH]c4ccccc24)NC(=O)[C@H](CCCCN)NC(=O)[C@H](Cc2cnc[nH]2)NC(=O)[C@H]([C@@H](C)O)NC(=O)[C@H](CCCNC(=N)N)NC(=O)[C@H](CO)NC3=O)NC(=O)[C@H](CCCCN)NC(=O)[C@H](CC(=O)O)NC(=O)[C@H](CC(N)=O)NC(=O)[C@H](CC(=O)O)NC(=O)[C@@H]2CCCN2C1=O (H-DCLGFMRKCIPDNDKCCRPNLACSRTHKWCKYVF-NH2; disulfide 2-17, 9-23, 16-30) — higher, > 5 µM
- CC[C@H](C)[C@@H]1NC(=O)[C@@H]2CSSC[C@@H]3NC(=O)[C@H](C(C)C)NC(=O)[C@H](CC(C)C)NC(=O)[C@H](CC(N)=O)NC(=O)[C@@H]4CCCN4C(=O)[C@H](CCCNC(=N)N)NC(=O)[C@H](CSSC[C@H](NC(=O)[C@@H](N)CC(=O)O)C(=O)N[C@@H](CC(C)C)C(=O)NCC(=O)N[C@@H](Cc4ccccc4)C(=O)N[C@@H](CCSC)C(=O)N[C@@H](CCCNC(=N)N)C(=O)N[C@@H](CCCCN)C(=O)N2)NC(=O)[C@H](CSSC[C@@H](C(=O)N[C@@H](CCCCN)C(=O)N[C@@H](C)C(=O)N[C@H](C(=O)N[C@@H](Cc2ccccc2)C(N)=O)C(C)C)NC(=O)[C@H](Cc2c[nH]c4ccccc24)NC(=O)[C@H](CCCCN)NC(=O)[C@H](Cc2cnc[nH]2)NC(=O)[C@H]([C@@H](C)O)NC(=O)[C@H](CCCNC(=N)N)NC(=O)[C@H](CO)NC3=O)NC(=O)[C@H](CCCCN)NC(=O)[C@H](CC(=O)O)NC(=O)[C@H](CC(N)=O)NC(=O)[C@H](CC(=O)O)NC(=O)[C@@H]2CCCN2C1=O (H-DCLGFMRKCIPDNDKCCRPNLVCSRTHKWCKAVF-NH2; disulfide 2-17, 9-23, 16-30) — higher, > 5 µM
- CC[C@H](C)[C@@H]1NC(=O)[C@@H]2CSSC[C@@H]3NC(=O)[C@H](C(C)C)NC(=O)[C@H](CC(C)C)NC(=O)[C@H](CC(N)=O)NC(=O)[C@@H]4CCCN4C(=O)[C@H](CCCNC(=N)N)NC(=O)[C@H](CSSC[C@H](NC(=O)[C@@H](N)CC(=O)O)C(=O)N[C@@H](CC(C)C)C(=O)NCC(=O)N[C@@H](CCSC)C(=O)N[C@@H](CCSC)C(=O)N[C@@H](CCCNC(=N)N)C(=O)N[C@@H](CCCCN)C(=O)N2)NC(=O)[C@H](CSSC[C@@H](C(=O)N[C@@H](CCCCN)C(=O)N[C@@H](Cc2ccc(O)cc2)C(=O)N[C@H](C(=O)N[C@@H](Cc2ccccc2)C(N)=O)C(C)C)NC(=O)[C@H](Cc2c[nH]c4ccccc24)NC(=O)[C@H](CCCCN)NC(=O)[C@H](Cc2cnc[nH]2)NC(=O)[C@H]([C@@H](C)O)NC(=O)[C@H](CCCNC(=N)N)NC(=O)[C@H](CO)NC3=O)NC(=O)[C@H](CCCCN)NC(=O)[C@H](CC(=O)O)NC(=O)[C@H](CC(N)=O)NC(=O)[C@H](CC(=O)O)NC(=O)[C@@H]2CCCN2C1=O (H-DCLGMMRKCIPDNDKCCRPNLVCSRTHKWCKYVF-NH2; disulfide 2-17, 9-23, 16-30) — higher, > 10 µM
- CSCC[C@@H]1NC(=O)[C@H](Cc2ccccc2)NC(=O)CNC(=O)[C@H](CC(C)C)NC(=O)[C@@H](NC(=O)[C@@H](N)CC(=O)O)CSSC[C@@H]2NC(=O)[C@@H]3CSSC[C@@H](C(=O)N[C@@H](CCCCN)C(=O)N[C@@H](Cc4ccc(O)cc4)C(=O)N[C@H](C(=O)N[C@@H](Cc4ccccc4)C(N)=O)C(C)C)NC(=O)[C@H](Cc4c[nH]c5ccccc45)NC(=O)[C@H](CCCCN)NC(=O)[C@H](Cc4cnc[nH]4)NC(=O)[C@H]([C@@H](C)O)NC(=O)[C@H](CCCNC(=N)N)NC(=O)[C@H](CO)NC(=O)[C@H](CSSC[C@H](NC(=O)[C@H](CCCCN)NC(=O)[C@H](CCCNC(=N)N)NC1=O)C(=O)N[C@@H](C)C(=O)N1CCC[C@H]1C(=O)N[C@@H](CC(=O)O)C(=O)N[C@@H](CC(N)=O)C(=O)N[C@@H](CC(=O)O)C(=O)N[C@@H](CCCCN)C(=O)N3)NC(=O)[C@H](C(C)C)NC(=O)[C@H](CC(C)C)NC(=O)[C@H](CC(N)=O)NC(=O)[C@@H]1CCCN1C(=O)[C@H](CCCNC(=N)N)NC2=O (H-DCLGFMRKCAPDNDKCCRPNLVCSRTHKWCKYVF-NH2; disulfide 2-17, 9-23, 16-30) — higher, > 5 µM
- CC[C@H](C)[C@@H]1NC(=O)[C@@H]2CSSC[C@@H]3NC(=O)[C@H](C(C)C)NC(=O)[C@H](CC(C)C)NC(=O)[C@H](CC(N)=O)NC(=O)[C@@H]4CCCN4C(=O)[C@H](CCCNC(=N)N)NC(=O)[C@H](CSSC[C@H](NC(=O)[C@@H](N)CC(=O)O)C(=O)N[C@@H](CC(C)C)C(=O)NCC(=O)N[C@@H](Cc4ccccc4)C(=O)N[C@@H](CCSC)C(=O)N[C@@H](CCCNC(=N)N)C(=O)N[C@@H](CCCCN)C(=O)N2)NC(=O)[C@H](CSSC[C@@H](C(=O)N[C@@H](CCCCN)C(=O)N[C@@H](Cc2ccc(O)cc2)C(=O)N[C@H](C(=O)N[C@@H](Cc2ccccc2)C(=O)N[C@@H](C)C(N)=O)C(C)C)NC(=O)[C@H](Cc2c[nH]c4ccccc24)NC(=O)[C@H](CCCCN)NC(=O)[C@H](Cc2cnc[nH]2)NC(=O)[C@H]([C@@H](C)O)NC(=O)[C@H](CCCNC(=N)N)NC(=O)[C@H](CO)NC3=O)NC(=O)[C@H](CCCCN)NC(=O)[C@H](CC(=O)O)NC(=O)[C@H](CC(N)=O)NC(=O)[C@H](CC(=O)O)NC(=O)[C@@H]2CCCN2C1=O — higher, > 5 µM
- CC[C@H](C)[C@@H]1NC(=O)[C@@H]2CSSC[C@@H]3NC(=O)[C@H](C(C)C)NC(=O)[C@H](CC(C)C)NC(=O)[C@H](CC(N)=O)NC(=O)[C@@H]4CCCN4C(=O)[C@H](CCCNC(=N)N)NC(=O)[C@H](CSSC[C@H](NC(=O)[C@H](C)N)C(=O)N[C@@H](CC(C)C)C(=O)NCC(=O)N[C@@H](Cc4ccccc4)C(=O)N[C@@H](CCSC)C(=O)N[C@@H](CCCNC(=N)N)C(=O)N[C@@H](CCCCN)C(=O)N2)NC(=O)[C@H](CSSC[C@@H](C(=O)N[C@@H](CCCCN)C(=O)N[C@@H](Cc2ccc(O)cc2)C(=O)N[C@H](C(=O)N[C@@H](Cc2ccccc2)C(N)=O)C(C)C)NC(=O)[C@H](Cc2c[nH]c4ccccc24)NC(=O)[C@H](CCCCN)NC(=O)[C@H](Cc2cnc[nH]2)NC(=O)[C@H]([C@@H](C)O)NC(=O)[C@H](CCCNC(=N)N)NC(=O)[C@H](CO)NC3=O)NC(=O)[C@H](CCCCN)NC(=O)[C@H](CC(=O)O)NC(=O)[C@H](CC(N)=O)NC(=O)[C@H](CC(=O)O)NC(=O)[C@@H]2CCCN2C1=O (H-ACLGFMRKCIPDNDKCCRPNLVCSRTHKWCKYVF-NH2; disulfide 2-17, 9-23, 16-30) — higher, > 5 µM
